Laboratory results as given in patent publication US11214586B2, “Rhodamine triplet state complex and preparation and photodynamic therapy (PDT) study thereof” (SOUTHERN UNIVERSITY OF SCIENCE AND TECHNOLOGY, priority 2018, dated 2022).
Where two headings read alike, the source gives them in different places.

Assays:
[1] = UV/Vis absorption spectra; type: physicochemical; details: for λabs: absorption maximum, in CH3CN; for ε × 10^4: molar extinction coefficient at the absorption maxima, values × 10^4
Method: (§1) The UV-vis absorption spectra were taken on Cary 60 UV-vis spectrophotometer. Steady-state emission spectra at room temperature were recorded on an Edinburgh Instruments FLS980 fluorescence spectrometer. Quartz cuvettes (path length=1 cm) were used in all spectrophotometric and fluorometric measurements. NMR spectra were recorded on a Bruker AVANCE 400 (^1H NMR for 400 MHz and ^13C NMR for 100 MHz) Fourier transform NMR spectrometer with chemical shifts reported relative to tetramethylsilane, (CH3)4Si. High-resolution MS spectra were performed on an Orbitrap Fusion Tribrid mass spectrometer. Elemental analyses of the newly synthesized complexes were preformed on a Elementar Vario EL Cube elemental analyzer at Sun Yat-sen University. The nanosecond time-resolved transient-difference absorption spectra were detected by using Edinburgh LP920 instruments (Edinburgh Instruments, U.K.). All solutions for transient absorption studies were degassed on a high-vacuum line in a two-compartment cell consisting of a 10-ml Pyrex bulb and a 1-cm or 4-mm path length quartz cuvette and sealed from the atmosphere by a Bibby Rotaflo HP6 Teflon stopper. The solutions were rigorously degassed with at least four successive freeze-pump-thaw cycles. Emission lifetime measurements were performed using a conventional laser system. The excitation source used was a 355-nm output (third harmonic) of a Spectra-Physics Quanta-Ray Q-switched GCR-150-10 pulsed Nd-YAG laser. Luminescence decay signals were detected by a Hamamatsu R928 PMT and recorded on a Tektronix Model TDS-620A (500 MHz, 2 GS/s) digital oscilloscope and analyzed using a program for exponential fits. Absolute quantum yields were measured by HAMAMATSU-C11347.

[2] = Steady-state emission spectra and absolute luminescence quantum yield; type: physicochemical; details: for λem: Conc. = 1.0 × 10^−6M in MeOH; for Φlum: absolute luminescence quantum yield measured by HAMAMATSU-C11347
Method: as §1

[3] = Nanosecond transient absorption difference spectroscopy; type: physicochemical; details: for TT (triplet-state lifetimes): measured by transient absorption in CH3CN
Excerpt: Nanosecond transient absorption (TA) difference spectroscopy was employed to investigate the triplet excited states of M-Rho (FIG. 2c and FIGS. 16-19). Upon pulsed laser excitation at 355 nm, an intense bleaching signal at 575 nm with lifetime in microsecond range is observed, which is ascribed to the depletion of ground state rhodamine absorption. Such a long-lived excited state should be localized on the rhodamine unit, and is assigned as the ^3IL excited state of rhodamine in M-Rho. The absorption signal at 610-800 nm is due to the rhodamine ^3IL excited state absorption. In contrast, no signal from this triplet excited state is detected in bpy-Rho because of the lack of efficient ISC. On the other hand, only the transient absorption signals originating from the corresponding ^3MLCT excited states are observed in the rhodamine-free analogues (FIGS. 20-21).
as §1

[4] = Singlet oxygen quantum yield; type: physicochemical; details: for ΦΔ (singlet oxygen quantum yield): relative to rose bengal (ΦΔ = 0.76)
Excerpt: (§2) The long-lived triplet excited state of rhodamine is anticipated to interact with molecular oxygen (^3O2) to form singlet oxygen (^1O2), which is useful for PDT applications. The ability of M-Rho to produce ^1O2 has been evaluated spectroscopically by the observation of ^1O2 emission at about 1270 nm (inset of FIG. 2b). Remarkable ^1O2 emission is observed in Ir-Rho, Re-Rho and Pt-Rho but not for Rh-Rho and bpy-Rho. By monitoring the diminution of the characteristic absorption of the ^1O2 scavenger 1,3-diphenylisobenzofuran (DPBF) at 410 nm, ^1O2 generation is also confirmed and the corresponding quantum yields (ϕΔ) for the complexes are determined (Table 1). […] The rate and quantum yield of ^1O2 generation are found to vary with different metal systems.
Singlet oxygen quantum yield was determined by comparing the ^1O2 emission intensity of Rose Bengal and M-Rho.

[5] = Singlet oxygen emission at about 1270 nm; type: physicochemical; details: in CH3CN
Method: Singlet oxygen emission was detected by using FLS-980 spectrofluorometer. All of the compounds were dissolved in CH3CN. The absorbance at 532 nm was adjusted to be around 1.7 for all the compounds. Upon measurements, an 850 nm long-pass filter was inserted in between the sample and the detector to avoid many high-order diffraction from the visible emission.

[6] = tested on: MCF-7 cells; experiment: Mitochondrial membrane potential, flow-cytometry-based JC-1 assay; type: cell-based, human; details: 5 uM, 11 W lamp 30 min
Method: Mitochondrial depolarization was assessed by flow cytometry after incubation with JC-1 Molecular Probes (Thermo Fisher Scientific, USA). Briefly, The MCF-7 cells were seeded in six-well plate, incubated for 24 h in 5% CO2 at 37° C. Next, added to compounds (bpy-Rho and M-Rho) in medium make the final concentrations of 5 uM compounds. After irradiation treatment (11 W lamp 30 min). The cells were resuspended in warm PBS, and incubated with JC-1 (4 μg/ml) for 30 min at 37° C. and 5% CO2. Thereafter the cells were centrifuged, resuspended in 600 μL of PBS, and analyzed immediately on a flow cytometer (Becton Dickinson, San Jose, Calif., USA). Untreated cells were used as negative controls.

[7] = Octanol-water partition coefficient
Excerpt: (§3) Octanol-water partition coefficients (log Po/w)^[27] of bpy-Rho and M-Rho have been measured in order to study their lipophilic/hydrophilic characters. The higher is the log Po/w value associated with the dye, the higher is its lipophilic character.

[8] = DPBF 1O2 scavenger absorbance under 11-W lamp irradiation; type: physicochemical; details: irradiation with a 11-W lamp; 50 μM DPBF, 5 μM compound
Method: Rose Bengal was measured in MeOH.
as §2

[9] = tested on: MCF-7 cells; experiment: Intracellular ROS, DCFH-DA assay; type: cell-based, human; details: 5 μM, 11-W lamp for 30 min
Method: The MCF-7 cells were seeded in eight-well chambered coverglasses (lab-Tek, Nunc, USA) and six-well plate, incubated for 24 h in 5% CO2 at 37° C. Next, added to compounds (bpy-Rho and M-Rho) in medium make the final concentrations of 5 μM compounds. After irradiation treatment (11 W lamp 30 min), cells were promptly washed with PBS and incubated with 4 μg/ml 2′7′-dichloro-fluoreseindiacetate (DCFH-DA) for 30 min, and intracellular ROS generation was evaluated by flow cytometry and confocal microscopy.

[10] = tested on: MCF-7 cells; experiment: Subcellular localization with MitoTracker Green; type: cell-based, human; details: 5 μM, co-stained with MitoTracker Green
Method: MCF-7 cells (5000 cells) were cultured in eight-well chambered coverglasses (lab-Tek, Nunc, USA) for 24 h. Later, added to the cells to give final complexes concentrations (5 μM). After incubation for 30 min, The cells were treated with Mito-Tracker for 10 min to stain specifically the mitochondria (1:5000 dilution in PBS). After washing three times with PBS, followed by confocal microscopy imaging.

[11] = tested on: MCF-7 cells; experiment: Mitochondria-localized ROS, MitoSOX Red; type: cell-based, human; details: 10 μM, 11 W lamp irradiation for 10 min
Method: (a) Confocal fluorescence microscopic images of MCF-7 cells treated with MitoSOX (1.0 μM) according to the treatment variables, including with coincubation with bpy-Rho and M-Rho (10 μM), 11 W lamp irradiation for 10 min. (b) Flow cytometry analysis of MCF-7 cells (n=10000 cells) after treatment with MitoSox and different Rhodamine-metal Complexes mean fluorescence intensity per cell.
On the basis of the results of intracellular ROS production and colocalization study, it is reasonable to anticipate that the ROS is essentially generated within the mitochondria. MitoSOX Red reagent, a mitochondrial ROS indicator, is also used to probe specifically the generation of mitochondria-localized ROS. Intense red fluorescence from the oxidation of MitoSOX is observed in both confocal fluorescence microscopy images (FIG. 26a) and flow cytometry analysis (FIG. 26b) of MCG-7 cells incubated with MitoSOX and M-Rho.

[12] = physchem
Excerpt: as §3

[13] = octanol-water, literature value; cited from earlier work

Row | SMILES | λabs [1] | ε × 10^4 [1] | λem [2] | Φlum [2] | TT (triplet-state lifetimes) [3] | ΦΔ (singlet oxygen quantum yield) [4] | 1O2 emission at about 1270 nm [5] | ratio of JC-1 aggregates/JC-1 monomers [6] | log Po/w [7] | rate and quantum yield of 1O2 generation, ranking ([4]; among M-Rho) | emission ([2]; in MeCN) | signal from rhodamine triplet excited state ([3]; excitation at 355 nm) | DPBF absorption at 410 nm [8] | intracellular ROS generation [9] | mitochondrial localization [10] | MitoSOX red fluorescence (mitochondria-localized ROS) [11] | logP [12] | log Po/w [13]
1 | CCN(CC)c1ccc2c(-c3ccnc(-c4cc(C)ccn4)c3)c3ccc(=[N+](CC)CC)cc-3oc2c1.F[P-](F)(F)(F)(F)F.[C](#Cc1ccccc1)[Pt][C]#Cc1ccccc1 [Pt-Rho] | 574 nm | 7.96 M^−1 cm^−1 | 631 nm | 0.062 | 8.49 μs | 0.57 | Remarkable | 8.16 | 1.26 |  |  |  |  |  |  |  |  | 
2 | CCN(CC)c1ccc2c(-c3ccnc(-c4cc(C)ccn4)c3)c3ccc(=[N+](CC)CC)cc-3oc2c1.F[P-](F)(F)(F)(F)F.F[P-](F)(F)(F)(F)F.c1ccc(-c2cccc[c]2[Rh+][c]2ccccc2-c2ccccn2)nc1 [Rh-Rho] | 574 nm | 8.24 M^−1 cm^−1 | 629 nm | 0.23 | 14.1 μs | 0.37 | not | 11.28 | −1.05 | worst photosensitizer |  |  |  |  |  |  |  | 
3 | CCN(CC)c1ccc2c(-c3ccnc(-c4cc(C)ccn4)c3)c3ccc(=[N+](CC)CC)cc-3oc2c1 [bpy-Rho, N-(6-(diethylamino)-9-(4′-methyl-[2,2′-bipyridin]-4-yl)-3H-xanthen-3-ylidene)-N-ethylethanaminium] | 564 nm | 9.86 M^−1 cm^−1 | 598 nm | 0.29 |  | 0.08 | not | 14.23 |  |  | 598 nm | no signal | negligible decrease | negligible or a little amount of ROS | relatively less mitochondria-localized | very weak red fluorescence | 0.49 | 
4 | COC(=O)c1ccccc1-c1c2ccc(=N)cc-2oc2cc(N)ccc12.Cl [rhodamine 123] |  |  |  |  |  |  |  |  |  |  |  |  |  |  |  |  |  | −0.62
